In paper PMC4255150 (Structure (London, England : 1993), 2014):

Molecular target: T1, AmiA (Bacteroides uniformis, UniProt A0ABC9NAU1)
T1 sequence (A0ABC9NAU1 24-262): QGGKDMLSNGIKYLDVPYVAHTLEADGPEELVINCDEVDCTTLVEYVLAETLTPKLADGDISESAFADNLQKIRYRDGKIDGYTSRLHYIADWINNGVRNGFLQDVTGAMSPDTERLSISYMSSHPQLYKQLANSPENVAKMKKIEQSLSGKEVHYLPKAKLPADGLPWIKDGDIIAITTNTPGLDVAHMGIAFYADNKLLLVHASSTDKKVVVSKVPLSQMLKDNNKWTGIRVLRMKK
Assay: HPLC inhibition assay with TCT
Format: biochemical
Conditions: 0.1 mM TCT substrate, pH 7.8, 37°C

Structure (SMILES)	% activity retained at 1 mM (reaction product) [%]	% activity retained at 1 mM [%]
CC(=O)N[C@H]1[C@H](O[C@H]2[C@H](O[C@H](C)C(=O)O)[C@@H](NC(C)=O)[C@@H]3OC[C@H]2O3)O[C@H](CO)[C@@H](O)[C@@H]1O [GlcNAc-anhMurNAc]	15	–
CC(=O)N[C@H]1C(O)O[C@H](CO)[C@@H](O)[C@@H]1O (stereo partly drawn) [GlcNAc]	–	98
CC(=O)N[C@H]1C(O)O[C@H](CO)[C@@H](O)[C@@H]1O[C@H](C)C(=O)O (stereo partly drawn) [MurNAc]	–	25
